Laboratory results as given in BindingDB's records for doi:10.1016/j.chembiol.2008.07.013 (University of Connecticut, 2008).
pIC50: −log10 of the molar value.

Target: T1, Dihydrofolate reductase (Candida glabrata (strain ATCC 2001 / BCRC 20586 / JCM 3761 / NBRC 0622 / NRRL Y-65 / CBS 138), UniProt Q6FPH0)
T1 sequence (Q6FPH0 whole entry): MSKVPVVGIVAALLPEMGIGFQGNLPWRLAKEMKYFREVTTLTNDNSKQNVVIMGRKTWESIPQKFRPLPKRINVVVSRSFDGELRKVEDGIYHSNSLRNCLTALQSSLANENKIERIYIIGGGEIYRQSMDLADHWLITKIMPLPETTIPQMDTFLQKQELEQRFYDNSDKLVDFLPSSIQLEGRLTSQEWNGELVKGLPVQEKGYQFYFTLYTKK
Experiment: Enzyme Inhibition Assay
Conditions: 25 °C
From the text: Enzyme inhibition assay using CgDHFR and hDHFR performed at 25 degree Celsius by monitoring the rate of enzyme-dependent NADPH oxidation at an absorbance of 340 nm over several minutes.

| pIC50 | Structure (SMILES) |
| --- | --- |
| 7.52 | COc1cc([C@@H](C#Cc2c(C)nc(N)nc2N)OC)cc(OC)c1OC [JMC517532 Compound 10] |
| 7.49 | COc1ccc(OC)c(CC#Cc2c(C)nc(N)nc2N)c1 [Propargyl-linked, 10] |
| 7.66 | COc1cc(CC#Cc2cnc(N)nc2N)cc(OC)c1OC [JMC517532 Compound 3] |
| 8.09 | CCc1nc(N)nc(N)c1C#CCc1cc(OC)ccc1OC [5-[3-(2,5-dimethoxyphenyl)prop-1-yn-1-yl]-6-ethylpyrimidine-2,4-diamine] |
| 7.60 | COc1cc(C(C)C#Cc2c(C)nc(N)nc2N)cc(OC)c1OC (configuration not stated) [Propargyl-substituted antifolate, 8] |
| 7.68 | COc1ccc(OC)c(CC#Cc2cnc(N)nc2N)c1 [5-[3-(2,5-dimethoxyphenyl)prop-1-yn-1-yl]pyrimidine-2,4-diamine] |
| 7.41 | COc1cc([C@@H](O)C#Cc2c(C)nc(N)nc2N)cc(OC)c1OC [Propargyl-substituted antifolate, 9] |
